Test results as given in EP0326329B1, “Quinazoline derivatives useful as insecticides” (Dow AgroSciences LLC, priority 1988, dated 1989).

Columns and labels:
Type in all cases: in vivo
[1] = test system: southern armyworm (Spodopetra eridania Cramer); assay: Mite/insect screen, sprayed squash leaves (SAW); settings: Spodoptera eridania, percent mortality, read-out: SAW RESULTS %; for mortality at 200 ppm: spray rate 200 ppm; for mortality at 400 ppm: spray rate 400 ppm
Summary of the method: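 Mortality and phytotoxicity read after standard exposure periods on sprayed squash: cotyledons for melon aphids and twospotted spider mites, excised leaves placed with southern armyworm larvae. Spray solutions were water dilutions of acetone/alcohol stocks containing TOXIMUL R and S emulsifiers, applied to runoff at 10 psi and air-dried one hour.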

[2] = test system: melon aphids (Aphis gossypii Glover); assay: Mite/insect screen, sprayed squash cotyledons (MA); settings: Aphis gossypii, percent mortality, read-out: MA RESULTS %; for mortality at 200 ppm: spray rate 200 ppm; for mortality at 400 ppm: spray rate 400 ppm
Summary of the method: (§1)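 Compounds dissolved in acetone/alcohol with TOXIMUL R/S emulsifiers, diluted with water to test concentrations, and sprayed to runoff on both leaf surfaces at 10 psi, then dried 1 h. Excised treated squash leaves given southern armyworm larvae; aphid and spider mite tests on sprayed squash cotyledons. Percent mortality and phytotoxicity scored after standard exposure.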

[3] = test system: Twospotted spider mites (Tetranychus urticae Koch); assay: Mite/insect screen, sprayed squash cotyledons (SM); settings: Tetranychus urticae, percent mortality, read-out: SM RESULTS %; for mortality at 200 ppm: spray rate 200 ppm; for mortality at 400 ppm: spray rate 400 ppm
Summary of the method: as §1

[4] = test system: Pseudoperonospora cubensis (downy mildew); assay: Greenhouse Test 1, foliar spray fungicide screen (DOWN MDEW), host squash; settings: disease control rating, 400 ppm (+++ at 100 ppm)
[5] = test system: Pyricularia oryzae (rice blast); settings: disease control rating, foliar spray, host rice; 400 ppm (+++ at 100 ppm)
[6] = test system: Erysiphe graminis tritici (powdery mildew); assay: Greenhouse Test 1, foliar spray fungicide screen (POWD MDEW), host wheat; settings: disease control rating, 400 ppm (+++ at 100 ppm)
[7] = test system: Botrytis cinerea (gray mold); assay: Greenhouse Test 1, foliar spray fungicide screen (GRAY MOLD), host grape berries; settings: disease control rating, 400 ppm (+++ at 100 ppm)
[8] = test system: Southern corn rootworm (Diabrotica undecimpuctata howardi Barber); assay: Mite/insect screen, soil treatment (CRW); settings: Diabrotica, percent mortality, soil treatment, read-out: CRW RESULTS %; for mortality at 12 ppm: CRW rate 12.00 ppm; for mortality at 24 ppm: CRW rate 24.00 ppm
Summary of the method: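 Five 2–3 instar larvae were placed on dry sandy soil with a presoaked corn seed after the soil had received 1 mL of compound solution and dried 6–12 h; cups were kept capped at 23°C. Mortality (%) and phytotoxicity were read after standard exposure. Formulation: acetone/alcohol with emulsifiers, water-diluted.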

[9] = test system: Puccinia recondita tritici (leaf rust); assay: Greenhouse Test 1, foliar spray fungicide screen (LEAF RUST), host wheat; settings: disease control rating, 400 ppm (+++ at 100 ppm)

Row | Structure (SMILES) | mortality at 200 ppm [1] | mortality at 400 ppm [1] | mortality at 200 ppm [2] | mortality at 400 ppm [2] | mortality at 200 ppm [3] | mortality at 400 ppm [3] | DOWN MDEW [4] | RICE BLAST [5] | POWD MDEW [6] | GRAY MOLD [7] | mortality at 12 ppm [8] | mortality at 24 ppm [8] | LEAF RUST [9]
1 | CC(C)Cc1ccc(C(C)COc2ncnc3ccccc23)cc1 (centres unmarked) [Example 167, 4-[2-[4-(2-methylpropyl)phenyl]propoxy]quinazoline] | 0% | 0% | 90% | 80% | 90% | 80% | - (- = 0-19% control at 400 ppm) | +++ (+++ = 90-100% control at 100 ppm) | + (+ = 20-89% control at 400 ppm) | - (- = 0-19% control at 400 ppm) | 0% | 0% | + (+ = 20-89% control at 400 ppm)
2 | Fc1cccc2c(OCCc3ccccc3)ncnc12 [Example 95, 8-fluoro-4-(2-phenylethoxy)quinazoline] | 0% | 0% | 80% | 0% | 0% | 0% | +++ (+++ = 90-100% control at 100 ppm) | - (- = 0-19% control at 400 ppm) | +++ (+++ = 90-100% control at 100 ppm) | - (- = 0-19% control at 400 ppm) | 0% | 0% | +++ (+++ = 90-100% control at 100 ppm)
3 | Fc1cccc2c(OCCc3ccc(Cl)cc3)ncnc12 [Example 55, 4-[2-(4-chlorophenyl)ethoxy]-8-fluoroquinazoline] | 100% | 0% | 100% | 0% | 100% | 0% | +++ (+++ = 90-100% control at 100 ppm) | +++ (+++ = 90-100% control at 100 ppm) | +++ (+++ = 90-100% control at 100 ppm) | - (- = 0-19% control at 400 ppm) | 0% | 0% | +++ (+++ = 90-100% control at 100 ppm)
4 | c1ccc(Oc2ccccc2CCNc2ncnc3ccccc23)cc1 [Example 45, N-[2-(2-phenoxyphenyl)ethyl]-4-quinazolinamine] |  | 0% |  | 0% |  | 0% | + (+ = 20-89% control at 400 ppm) | - (- = 0-19% control at 400 ppm) | + (+ = 20-89% control at 400 ppm) | - (- = 0-19% control at 400 ppm) |  | 0% | +++ (+++ = 90-100% control at 100 ppm)
5 | Fc1cccc2c(NCCc3ccc(-c4ccccc4)cc3)ncnc12 [Example 102, 8-fluoro-N-[2-(1,1'-biphenyl)-4-ylethyl]-4-quinazolinamine] | 80% | 100% | 80% | 90% | 80% | 90% | ++ (++ = 90-100% control at 400 ppm) | +++ (+++ = 90-100% control at 100 ppm) | ++ (++ = 90-100% control at 400 ppm) | ++ (++ = 90-100% control at 400 ppm) | 0% | 0% | +++ (+++ = 90-100% control at 100 ppm)
6 | CCOc1ccc(CCCOc2ncnc3ccccc23)cc1 [Example 158, 4-[3-(4-ethoxyphenyl)propoxy]quinazoline] | 0% | 0% | 0% | 40% | 0% | 60% | +++ (+++ = 90-100% control at 100 ppm) | ++ (++ = 90-100% control at 400 ppm) | + (+ = 20-89% control at 400 ppm) | - (- = 0-19% control at 400 ppm) | 0% | 0% | + (+ = 20-89% control at 400 ppm)
7 | COc1ccc(CCOc2ncnc3ccccc23)cc1OC [Example 73, 4-[2-(3,4-dimethoxyphenyl)ethoxy]quinazoline] |  | 0% |  | 0% |  | 0% | +++ (+++ = 90-100% control at 100 ppm) | - (- = 0-19% control at 400 ppm) | ++ (++ = 90-100% control at 400 ppm) | - (- = 0-19% control at 400 ppm) |  | 100% | +++ (+++ = 90-100% control at 100 ppm)
